The record followed here is patent publication US5354748A, “Oral antibacterial compositions and method for the improvement of gastrointestinal absorption of penem or carbapenem antibiotics” (Suntory Limited, priority 1991, dated 1994).

Data set [1] deals with epithelial cells isolated from the small intestine of a rat. As to the kind of experiment: Degradation of penem in epithelial cells isolated from rat small intestine (free acid of penem remaining by HPLC, with/without cilastatin). The data set is classed as in vitro ADME. The conditions noted are these: cilastatin 35 μg/ml; 37° C., 60 minutes. The procedure: Degradation of penems in epithelial cells isolated from the small intestine of a rat was investigated by the following method. Namely, the epithelial cells were isolated from the small intestine of the rat by the citric acid method reported in The Journal of Biological Chemistry, 248, […] (1973).
After the resultant solution was incubated at 37° C. for 60 minutes, the free acid of the penem was measured by high performance liquid chromatography (HPLC).

A further data set in a line: in vivo. Set-up: species or system Sprague-Dawley male rats. The settings on record: rat, intravenous penem; at each cilastatin dosage. The procedure: The blood was collected during the period of from 0.1 to 1.5 hours after the administration. The concentrations of the free acid of the penem in plasma samples were measured by high performance liquid chromatography (HPLC) to determine the area under the plasma concentration:time curve (AUC).

For `CC1(C)C[C@@H]1C(=O)N/C(=C\CCCCSC[C@H](N)C(=O)O)C(=O)O` [cilastatin, reference compound], the “Degradation of the penem carboxylate by addition of cilastatin” value in data set [1] is reported as “inhibited”. Also, the “Area under the plasma concentration:time curve upon intravenous administration, compared with single administration” value in the data set “in vivo” was “not different”.
